Reference: patent US20120129843A1, “PYRIDYL-THIAZOLYL INHIBITORS OF PRO-MATRIX METALLOPROTEINASE ACTIVATION” (priority 2010, published 2012)

Key:
[1] = system: rats with SCW-induced arthritis; assay: Efficacy in rats with SCW-induced arthritis (ankle thickness, clinical score); type: in vivo, rat; conditions: for Clinical Scores (0-8), Day 18 (mean): Day 18, start of treatment; for Clinical Scores (0-8), Day 26 (mean): Day 18-26
Description: A polyarthritis can be induced in female Lewis rats following i.p. administration of streptococcal cell wall (SCW) proteoglycan-polysaccharides (PG-PS) (J Exp Med 1977; 146:1585-1602). The model has an acute phase (days 3-7) that is complement and neutrophil-dependent and that resolves. A chronic erosive phase begins at about day ten and is dependent on the development of specific T cell immunity to the PG-GS, which resists digestion and remains present in synovial macrophages for months. Like rheumatoid arthritis, SCW-induced arthritis is reduced by TNF inhibitors, and the dependence of SCW-induced arthritis on macrophages (Rheumatology; 2001; 40:978-987) and the strong association of rheumatoid arthritis severity with synovial-tissue macrophage counts (Ann Rheum Dis; 2005; 64:834-838) makes SCW-arthritis an attractive model for testing potential therapeutic agents. SCW PG-PS 10S (Beckton Dickinson Cat#210866) suspended in saline was vortexed for 30 seconds and sonicated for 3 min with a probe type sonicator prior to injection. Female Lewis (LEW/N) rats, 5-6 weeks of age (80-100 g) were injected (i.p.) with SCW PG-PS (15 μg of rhamnose/gram BW) in the lower left quadrant of the abdomen using a 1 mL syringe fitted with a 23-gauge needle. Control (disease-free) rats were treated in a similar manner with sterile saline. Control rats were sacrificed on day 5 and groups of SCW-injected rats were sacrificed on day 5 when acute inflammation was maximal or on day 18 when chronic inflammation was established.
To induce arthritis, Female Lewis (LEW/N) rats, 5-6 weeks of age (80-100 g) were injected (i.p.) with SCW PG-PS as described above. Eighteen days later, arthritis was well established. Calipers were used to measure the width (anterior to posterior surface) of the left and right hind ankles of each rat. Each ankle was measured 3 times and averaged, and treatment groups were randomized based on ankle thickness (Table 6). Commencing on day 18, randomized groups of arthritic rats (n=5 rats/group) received vehicle or 5, 20, or 50 mg/kg Compound-α BID by oral gavage. Vehicle consisted of an aqueous mixture containing 2% (v:v) N-methylpyrrolidone, 5% (v:v) glycerine, and 20% (w:v) captisol. Treatment continued daily through the morning of day 26.
By day 18 mean ankle thickness was increased an average of >4.4 mm compared to disease free rats. Rats treated with vehicle alone continued to gradually develop a more severe arthritis based on ankle thickness measurements over the eight-day treatment period (Table 6). […] By day 26, the disease associated increase in ankle thickness had been reduced 27, 37, and 46 percent by 5, 20, and 50 mg/kg Compound-α, respectively.
Hind paw inflammation clinical scores were assigned based on swelling and erythema.

[2] = target: T1, MMP9 mediated gelatinase activity in the livers (Rattus norvegicus, UniProt P50282); assay: In situ zymography of gelatinase activity in livers of SCW-induced rats dosed with compound; type: in vivo; conditions: for Intensity, Mean / Intensity, Rat 1 / Intensity, Rat 2 / Intensity, Rat 3: SCW, Day 25-28
T1 construct: from tissue; host or cells: frozen liver sections of female Lewis rats
T1 sequence (P50282 20-708): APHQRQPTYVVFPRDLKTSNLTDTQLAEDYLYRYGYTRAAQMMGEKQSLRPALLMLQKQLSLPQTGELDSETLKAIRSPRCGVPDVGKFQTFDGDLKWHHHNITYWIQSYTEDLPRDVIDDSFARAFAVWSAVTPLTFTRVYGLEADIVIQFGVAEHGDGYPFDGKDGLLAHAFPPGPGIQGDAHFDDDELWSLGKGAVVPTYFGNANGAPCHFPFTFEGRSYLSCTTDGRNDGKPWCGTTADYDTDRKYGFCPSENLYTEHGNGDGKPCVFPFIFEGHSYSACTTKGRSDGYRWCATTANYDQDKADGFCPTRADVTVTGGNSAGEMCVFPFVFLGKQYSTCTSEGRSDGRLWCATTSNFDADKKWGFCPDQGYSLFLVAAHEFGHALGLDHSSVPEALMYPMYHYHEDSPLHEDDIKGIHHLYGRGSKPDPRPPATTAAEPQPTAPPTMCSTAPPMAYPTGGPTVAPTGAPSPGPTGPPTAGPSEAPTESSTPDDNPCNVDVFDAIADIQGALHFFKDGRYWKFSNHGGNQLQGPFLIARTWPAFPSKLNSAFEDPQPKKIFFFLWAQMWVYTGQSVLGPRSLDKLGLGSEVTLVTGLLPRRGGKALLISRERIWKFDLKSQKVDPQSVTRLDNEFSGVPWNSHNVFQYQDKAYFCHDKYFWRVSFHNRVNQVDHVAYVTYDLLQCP
Description: Compound-α Reduced MMP9 Mediated Gelatinase Activity in the Livers of Rats with SCW Arthritis In situ zymography provides an alternative approach to assess active MMP9 in tissues (Frederiks). Tissue sections are overlain with fluorescene-conjugated gelatin wherein the conjugation is sufficiently dense to cause the fluorescene to be dye-quenched (DQ). Proteolytic degradation of the DQ-gelatin releases the fluorescene from the quenching effect giving rise to bright green fluorescence at the site of degradation. Because in situ zymography requires the use of frozen sections, calcified tissues are problematic. However, an additional feature of the SCW arthritis model is the development of hepatic granulomatous disease (J Immunol; 1986; 137:2199-2209), and MMP9 reportedly plays a role in macrophage recruitment in the granulomas response to mycobacteria (Infect Immun; 2006; 74:6135-6144). Consequently, granulomatous livers from SCW-treated rats were assessed for active MMP9 by in situ zymography.
As described above, Female Lewis (LEW/N) rats, 5-6 weeks of age (80-100 g) were injected (i.p.) with saline or SCW PG-PS. On day 28, when the granulomatous response was well established, animals were sacrificed and livers were frozen in OCT cryo-sectioning medium and 10 μm sections were cut on a Cryome HM 500 M cryotome and mounted on glass microscope slides. Sections were air dried briefly. MMP9 was confirmed as the source of the gelatinase activity in the liver by treating liver sections with monoclonal antibodies directed against the active site of the two major gelatinases MMP9 and MMP2. Liver sections overlain with 50 μL of 100 μg/mL neutralizing mouse monoclonal antibodies directed against MMP9 (Calbiochem, clone 6-6B), or MMP2 (Millipore, clone CA-4001), or with PBS for 1 hr at room temperature. Tissues were rinsed once with PBS, blotted, and briefly air dried and then overlain with DQ-gelatin (Invitrogen) dissolved to 1 mg/mL in deionized water and then diluted 1:10 in 1% wt/vol low gelling point agarose type VII (Sigma) in PBS. The sections were covered with coverslips, incubated in the dark at room temperature for 20 min, and imaged on an Olympus IX80 inverted microscope fitted with fluorescence optics, using SlideBook™ imaging software (Intelligent Imaging Innovations, Inc., Philadelphia, Pa.; version 5.0). Fluorescence intensity was determined (Table 8). When compared to a saline-treated rat, gelatinase activity was abundantly expressed in granulomatous liver sections obtained from a rat with SCW arthritis.
Next, liver in situ zymography was used to assess the relative presence of active MMP9 in rats dosed with vehicle vs. Compound-α. Female Lewis (LEW/N) rats, 5-6 weeks of age (80-100 g) were injected (i.p.) with saline or SCW PG-PS. Commencing on day 25, randomized groups of rats (n=3 rats/group) received vehicle or 20 or 50 mg/kg Compound-α BID by oral gavage. Vehicle consisted of an aqueous mixture containing 2% (v:v) N-methylpyrrolidone, 5% (v:v) glycerine, and 20% (w:v) captisol. Treatment continued daily through the morning of day 28. Four hrs after the AM dose on day 28, rats were sacrificed and livers assessed for active MMP9 by in situ zymography (Table 9). Gelatinase activity was increased markedly in SCW-induced rats, but activity was reduced by approximately 80% in animals treated with 50 mg/kg Compound-α.

Cc1nc(C)c(-c2csc(Nc3cc(S(N)(=O)=O)ccc3OC(C)C)n2)s1 [Compound-α, 3-(2′,4′-Dimethyl-[4,5′]bithiazolyl-2-ylamino)-4-isopropoxy-benzenesulfonamide.HBr]
Clinical Scores (0-8), Day 18 (mean) ([1]; 5 mg/kg BID group): 8.00
Clinical Scores (0-8), Day 26 (mean) ([1]; 5 mg/kg BID): 6.80
Clinical Scores (0-8), Day 18 (mean) ([1]; 20 mg/kg BID group): 8.00
Clinical Scores (0-8), Day 26 (mean) ([1]; 20 mg/kg BID): 5.20
Clinical Scores (0-8), Day 18 (mean) ([1]; 50 mg/kg BID group): 7.80
Clinical Scores (0-8), Day 26 (mean) ([1]; 50 mg/kg BID): 4.40
reduction of liver gelatinase activity ([2]; 50 mg/kg, SCW-induced rats): approximately 80%
Intensity, Mean ([2]; 20 mg/kg BID oral): 55.2 RLU × 10^6
Intensity, Rat 1 ([2]; 20 mg/kg BID oral): 43.0 RLU × 10^6
Intensity, Rat 2 ([2]; 20 mg/kg BID oral): 69.0 RLU × 10^6
Intensity, Rat 3 ([2]; 20 mg/kg BID oral): 53.7 RLU × 10^6
Intensity, Mean ([2]; 50 mg/kg BID oral): 11.1 RLU × 10^6
Intensity, Rat 1 ([2]; 50 mg/kg BID oral): 3.2 RLU × 10^6
Intensity, Rat 2 ([2]; 50 mg/kg BID oral): 25.6 RLU × 10^6
Intensity, Rat 3 ([2]; 50 mg/kg BID oral): 4.5 RLU × 10^6
